For data set [1], the target named is rat TRPV1, full-length channel expressed in HEK293 cells (rat) (UniProt O35433).
rat TRPV1, full-length channel expressed in HEK293 cells (rat), sequence (O35433 whole entry): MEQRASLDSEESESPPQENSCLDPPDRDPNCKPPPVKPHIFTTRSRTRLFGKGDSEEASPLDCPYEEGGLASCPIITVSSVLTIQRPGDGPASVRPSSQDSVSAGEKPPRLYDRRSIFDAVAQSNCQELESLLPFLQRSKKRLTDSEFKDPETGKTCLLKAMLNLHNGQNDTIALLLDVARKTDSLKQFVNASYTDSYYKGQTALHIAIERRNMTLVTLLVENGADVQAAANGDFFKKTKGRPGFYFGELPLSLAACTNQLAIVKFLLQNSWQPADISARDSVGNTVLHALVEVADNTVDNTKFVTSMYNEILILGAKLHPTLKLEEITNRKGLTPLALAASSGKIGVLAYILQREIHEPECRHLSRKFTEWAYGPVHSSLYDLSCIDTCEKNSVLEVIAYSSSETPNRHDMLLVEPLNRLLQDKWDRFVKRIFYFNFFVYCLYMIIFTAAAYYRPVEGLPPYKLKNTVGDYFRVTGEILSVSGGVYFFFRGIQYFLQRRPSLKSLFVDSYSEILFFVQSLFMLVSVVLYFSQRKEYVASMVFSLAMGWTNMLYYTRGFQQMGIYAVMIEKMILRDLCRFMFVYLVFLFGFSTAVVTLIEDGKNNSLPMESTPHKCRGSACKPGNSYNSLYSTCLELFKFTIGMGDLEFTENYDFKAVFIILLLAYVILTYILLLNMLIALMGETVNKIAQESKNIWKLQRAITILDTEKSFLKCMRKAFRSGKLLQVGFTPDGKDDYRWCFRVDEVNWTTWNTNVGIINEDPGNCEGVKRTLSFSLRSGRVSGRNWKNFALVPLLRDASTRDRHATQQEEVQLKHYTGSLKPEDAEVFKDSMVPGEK

double-knot toxin (DkTx), full-length toxin produced recombinantly (natural protein), sequence (P0CH43 1-75): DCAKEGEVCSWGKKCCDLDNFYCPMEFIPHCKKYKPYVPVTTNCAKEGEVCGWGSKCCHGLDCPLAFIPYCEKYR

As to double-knot toxin, the Trp emission maximum in aqueous solution was found to be 353 nm.
Substance “double-knot toxin (DkTx), full-length toxin produced recombinantly (natural protein)” yielded a fractional dissociation 1 min after toxin removal (current 1 min after removal divided by steady-state current with toxin), whole-cell patch clamp at +120 mV, TRPV1 in HEK cells in data set [1] of 0.8.
